The values below are quoted from earlier work in patent US8680084B2, “Oral contraceptives to prevent pregnancy and diminish premenstrual symptomatology” (Teva Women's Health, Inc., priority 2001, dated 2014).

For data set [1] the following is noted: for amount roughly equivalent to 1 mg of levonorgestrel: progestin potency relative to levonorgestrel; for amount roughly equivalent to 30 μg of ethinyl estradiol: estrogen potency relative to ethinyl estradiol.
Another data set relates to PMDD. The settings on record: daily dose of either 20 mg or 60 mg; randomized, placebo-controlled trials.

As for `C#C[C@]1(O)CC[C@H]2[C@@H]3CCC4=CC(=O)CC[C@@H]4[C@H]3C(=C)C[C@@]21CC` [3-ketodesogestrel], the “amount roughly equivalent to 1 mg of levonorgestrel” value (from here on “amount roughly equivalent to 1 mg”) in data set [1] is reported as around 1 mg.

For `C[C@]12CC[C@@H]3c4ccc(O)cc4CC[C@H]3[C@@H]1CC[C@@H]2O` [17β-estradiol], the amount roughly equivalent to 30 μg of ethinyl estradiol in data set [1] was around 2 mg.

As for `CNCCC(Oc1ccc(C(F)(F)F)cc1)c1ccccc1` (stereo not shown) [Fluoxetine, fluoxetine], the “reducing symptoms of PMDD versus placebo” value with PMDD was “superior to placebo”.

Consider `C#C[C@]1(O)CC[C@H]2[C@@H]3CCC4=CCCC[C@@H]4[C@H]3C(=C)C[C@@]21CC` [desogestrel], for which, in data set [1], the “amount roughly equivalent to 1 mg” value was around 1 mg.

For `C#C[C@]1(O)C=C[C@H]2[C@@H]3CCC4=CC(=O)CC[C@@H]4[C@H]3CC[C@@]21CC` [gestodene], the “amount roughly equivalent to 1 mg” value in data set [1] is recorded as “about 0.7 mg”.

With `C#C[C@]1(O)CC[C@H]2[C@@H]3CCc4cc(OC)ccc4[C@H]3CC[C@@]21C` [mestranol], the “amount roughly equivalent to 30 μg of ethinyl estradiol” value in data set [1] is around 0.06 mg.

Turning to `C#C[C@]1(OC(C)=O)CC[C@H]2[C@@H]3CCC4=CC(=O)CC[C@@H]4[C@H]3CC[C@@]21C` [norethindrone acetate], the “amount roughly equivalent to 1 mg” value in data set [1] is given as “about 3.5 mg”.
